Data reported in paper PMC4979471 (Cell Death Discovery, 2015).
Like-named read-outs stand apart in the source and are kept apart here.

Tests used:
Assay in all cases: Kinase selectivity, P33-radiolabeled assay
Type in all cases: biochemical
Details in all cases: 10 μM ATP
[1] = target: T1, FRK/PTK5 (Homo sapiens, UniProt P42685)
T1 construct: purchased Reaction Biology Corp
Procedure, shortened: (§1)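 Duplicate single-concentration testing used 10 μM compound. The ATP concentration was also 10 μM.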

[2] = target: T2, VRK1 (Homo sapiens, UniProt Q99986)
T2 construct: purchased Reaction Biology Corp
T2 sequence (Q99986 1-396): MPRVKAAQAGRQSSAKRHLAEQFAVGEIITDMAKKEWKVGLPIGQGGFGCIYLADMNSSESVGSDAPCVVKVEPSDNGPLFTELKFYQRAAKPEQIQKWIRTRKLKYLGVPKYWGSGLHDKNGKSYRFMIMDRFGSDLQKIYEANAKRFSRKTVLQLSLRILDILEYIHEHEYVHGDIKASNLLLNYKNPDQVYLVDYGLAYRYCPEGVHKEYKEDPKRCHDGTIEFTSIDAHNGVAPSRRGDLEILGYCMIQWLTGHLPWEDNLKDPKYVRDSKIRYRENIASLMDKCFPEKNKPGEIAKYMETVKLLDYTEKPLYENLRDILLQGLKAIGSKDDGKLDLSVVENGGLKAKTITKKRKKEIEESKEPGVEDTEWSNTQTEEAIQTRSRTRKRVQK
Procedure, shortened: as §1

[3] = target: T3, CAMK4 (Homo sapiens, UniProt Q16566)
T3 construct: purchased Reaction Biology Corp
T3 sequence (Q16566 1-473): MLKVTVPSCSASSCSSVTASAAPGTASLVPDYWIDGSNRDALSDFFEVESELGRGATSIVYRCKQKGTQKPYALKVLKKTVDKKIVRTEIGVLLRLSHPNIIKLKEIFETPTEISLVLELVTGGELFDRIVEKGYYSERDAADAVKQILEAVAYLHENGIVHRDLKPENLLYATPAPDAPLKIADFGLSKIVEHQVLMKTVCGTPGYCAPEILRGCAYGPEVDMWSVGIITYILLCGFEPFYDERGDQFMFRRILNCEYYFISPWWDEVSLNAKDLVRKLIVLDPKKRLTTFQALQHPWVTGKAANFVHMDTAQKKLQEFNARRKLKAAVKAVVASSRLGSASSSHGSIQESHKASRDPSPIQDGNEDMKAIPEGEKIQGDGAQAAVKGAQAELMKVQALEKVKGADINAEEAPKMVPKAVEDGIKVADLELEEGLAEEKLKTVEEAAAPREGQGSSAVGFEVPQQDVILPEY
Procedure, shortened: as §1

[4] = target: T4, RET (Homo sapiens, UniProt P07949)
T4 construct: purchased Reaction Biology Corp
Procedure, shortened: as §1

[5] = target: T5, DYRK4 (Homo sapiens, UniProt Q9NR20)
T5 construct: purchased Reaction Biology Corp
T5 sequence (Q9NR20 1-520): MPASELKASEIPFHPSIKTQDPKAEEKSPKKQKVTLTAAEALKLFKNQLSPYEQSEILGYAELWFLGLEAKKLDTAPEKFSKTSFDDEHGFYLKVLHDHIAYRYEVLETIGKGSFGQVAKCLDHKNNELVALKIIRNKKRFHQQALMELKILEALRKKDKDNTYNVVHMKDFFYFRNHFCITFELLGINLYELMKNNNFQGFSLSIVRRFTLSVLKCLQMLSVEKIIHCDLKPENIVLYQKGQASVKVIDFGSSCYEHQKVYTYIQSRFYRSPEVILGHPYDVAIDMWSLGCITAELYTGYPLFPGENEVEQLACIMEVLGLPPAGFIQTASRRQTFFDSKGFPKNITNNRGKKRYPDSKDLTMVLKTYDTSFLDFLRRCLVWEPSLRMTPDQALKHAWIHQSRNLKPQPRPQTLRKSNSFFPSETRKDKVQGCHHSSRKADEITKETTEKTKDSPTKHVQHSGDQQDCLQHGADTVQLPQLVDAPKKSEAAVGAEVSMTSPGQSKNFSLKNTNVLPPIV
Procedure, shortened: as §1

[6] = target: T6, P38a/MAPK14 (Homo sapiens, UniProt Q16539)
T6 construct: purchased Reaction Biology Corp
Procedure, shortened: as §1

[7] = target: T7, ALK (Homo sapiens, UniProt Q9UM73)
T7 construct: purchased Reaction Biology Corp
Procedure, shortened: as §1

[8] = target: T8, PKCtheta (Homo sapiens, UniProt Q04759)
T8 construct: purchased Reaction Biology Corp
Procedure, shortened: as §1

[9] = target: T9, MARK1 (Homo sapiens, UniProt Q9P0L2)
T9 construct: purchased Reaction Biology Corp
Procedure, shortened: as §1

[10] = target: T10, MAPKAPK5/PRAK (Homo sapiens, UniProt Q8IW41)
T10 construct: purchased Reaction Biology Corp
T10 sequence (Q8IW41 1-473): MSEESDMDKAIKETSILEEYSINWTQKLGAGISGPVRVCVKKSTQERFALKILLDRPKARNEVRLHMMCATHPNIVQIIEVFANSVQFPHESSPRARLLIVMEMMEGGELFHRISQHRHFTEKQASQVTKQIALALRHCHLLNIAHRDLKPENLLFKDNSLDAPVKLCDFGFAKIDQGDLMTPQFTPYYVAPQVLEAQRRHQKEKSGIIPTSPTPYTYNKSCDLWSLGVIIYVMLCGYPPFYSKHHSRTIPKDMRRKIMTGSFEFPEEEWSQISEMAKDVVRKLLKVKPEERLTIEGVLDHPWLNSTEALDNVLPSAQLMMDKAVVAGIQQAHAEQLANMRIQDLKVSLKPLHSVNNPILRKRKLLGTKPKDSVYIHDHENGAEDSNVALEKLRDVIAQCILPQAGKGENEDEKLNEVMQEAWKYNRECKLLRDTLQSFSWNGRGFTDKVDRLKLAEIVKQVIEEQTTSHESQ
Procedure, shortened: as §1

[11] = target: T11, PKCeta (Homo sapiens, UniProt P24723)
T11 construct: purchased Reaction Biology Corp
Procedure, shortened: as §1

[12] = target: T12, PAK2 (Homo sapiens, UniProt Q13177)
T12 construct: purchased Reaction Biology Corp
Procedure, shortened: as §1

[13] = read-out: % Enzyme Activity (relative to DMSO controls) AVG
[14] = read-out: % Enzyme Activity (relative to DMSO controls) Data 1
[15] = read-out: % Enzyme Activity (relative to DMSO controls) Data 2

T8 sequence (Q04759 whole entry): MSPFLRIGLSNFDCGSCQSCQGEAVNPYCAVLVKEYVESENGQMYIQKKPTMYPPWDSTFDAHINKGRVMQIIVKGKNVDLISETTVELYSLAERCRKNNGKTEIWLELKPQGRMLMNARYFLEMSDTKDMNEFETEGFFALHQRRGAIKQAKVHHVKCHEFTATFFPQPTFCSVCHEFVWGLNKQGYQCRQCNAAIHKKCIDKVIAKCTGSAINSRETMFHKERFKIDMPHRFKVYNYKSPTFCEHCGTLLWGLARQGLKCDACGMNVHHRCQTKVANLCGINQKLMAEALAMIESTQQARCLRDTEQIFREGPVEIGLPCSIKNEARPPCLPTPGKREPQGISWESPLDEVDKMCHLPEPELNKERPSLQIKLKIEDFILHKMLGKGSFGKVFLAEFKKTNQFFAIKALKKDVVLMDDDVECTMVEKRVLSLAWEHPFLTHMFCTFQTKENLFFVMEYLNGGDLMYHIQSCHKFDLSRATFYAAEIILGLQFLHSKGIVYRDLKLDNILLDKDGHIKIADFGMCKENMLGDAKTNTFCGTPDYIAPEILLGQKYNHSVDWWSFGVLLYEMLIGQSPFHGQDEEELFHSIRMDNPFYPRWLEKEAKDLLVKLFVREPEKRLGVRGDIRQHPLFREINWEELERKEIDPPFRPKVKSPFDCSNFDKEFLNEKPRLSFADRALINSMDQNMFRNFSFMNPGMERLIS
T1 sequence (P42685 whole entry): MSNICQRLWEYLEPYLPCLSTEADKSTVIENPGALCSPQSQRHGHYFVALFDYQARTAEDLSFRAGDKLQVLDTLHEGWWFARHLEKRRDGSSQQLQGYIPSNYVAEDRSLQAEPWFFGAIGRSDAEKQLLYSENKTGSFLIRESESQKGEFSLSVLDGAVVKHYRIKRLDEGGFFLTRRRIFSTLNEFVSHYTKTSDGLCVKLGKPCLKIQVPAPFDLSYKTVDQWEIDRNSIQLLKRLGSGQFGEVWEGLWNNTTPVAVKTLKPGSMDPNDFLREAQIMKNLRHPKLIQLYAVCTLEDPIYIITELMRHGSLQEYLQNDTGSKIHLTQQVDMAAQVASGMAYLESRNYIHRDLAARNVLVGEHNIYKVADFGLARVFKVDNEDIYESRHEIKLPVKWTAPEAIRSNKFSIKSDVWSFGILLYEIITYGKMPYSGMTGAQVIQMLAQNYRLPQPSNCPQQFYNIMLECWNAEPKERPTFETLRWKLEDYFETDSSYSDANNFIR
T7 sequence (Q9UM73 19-1620): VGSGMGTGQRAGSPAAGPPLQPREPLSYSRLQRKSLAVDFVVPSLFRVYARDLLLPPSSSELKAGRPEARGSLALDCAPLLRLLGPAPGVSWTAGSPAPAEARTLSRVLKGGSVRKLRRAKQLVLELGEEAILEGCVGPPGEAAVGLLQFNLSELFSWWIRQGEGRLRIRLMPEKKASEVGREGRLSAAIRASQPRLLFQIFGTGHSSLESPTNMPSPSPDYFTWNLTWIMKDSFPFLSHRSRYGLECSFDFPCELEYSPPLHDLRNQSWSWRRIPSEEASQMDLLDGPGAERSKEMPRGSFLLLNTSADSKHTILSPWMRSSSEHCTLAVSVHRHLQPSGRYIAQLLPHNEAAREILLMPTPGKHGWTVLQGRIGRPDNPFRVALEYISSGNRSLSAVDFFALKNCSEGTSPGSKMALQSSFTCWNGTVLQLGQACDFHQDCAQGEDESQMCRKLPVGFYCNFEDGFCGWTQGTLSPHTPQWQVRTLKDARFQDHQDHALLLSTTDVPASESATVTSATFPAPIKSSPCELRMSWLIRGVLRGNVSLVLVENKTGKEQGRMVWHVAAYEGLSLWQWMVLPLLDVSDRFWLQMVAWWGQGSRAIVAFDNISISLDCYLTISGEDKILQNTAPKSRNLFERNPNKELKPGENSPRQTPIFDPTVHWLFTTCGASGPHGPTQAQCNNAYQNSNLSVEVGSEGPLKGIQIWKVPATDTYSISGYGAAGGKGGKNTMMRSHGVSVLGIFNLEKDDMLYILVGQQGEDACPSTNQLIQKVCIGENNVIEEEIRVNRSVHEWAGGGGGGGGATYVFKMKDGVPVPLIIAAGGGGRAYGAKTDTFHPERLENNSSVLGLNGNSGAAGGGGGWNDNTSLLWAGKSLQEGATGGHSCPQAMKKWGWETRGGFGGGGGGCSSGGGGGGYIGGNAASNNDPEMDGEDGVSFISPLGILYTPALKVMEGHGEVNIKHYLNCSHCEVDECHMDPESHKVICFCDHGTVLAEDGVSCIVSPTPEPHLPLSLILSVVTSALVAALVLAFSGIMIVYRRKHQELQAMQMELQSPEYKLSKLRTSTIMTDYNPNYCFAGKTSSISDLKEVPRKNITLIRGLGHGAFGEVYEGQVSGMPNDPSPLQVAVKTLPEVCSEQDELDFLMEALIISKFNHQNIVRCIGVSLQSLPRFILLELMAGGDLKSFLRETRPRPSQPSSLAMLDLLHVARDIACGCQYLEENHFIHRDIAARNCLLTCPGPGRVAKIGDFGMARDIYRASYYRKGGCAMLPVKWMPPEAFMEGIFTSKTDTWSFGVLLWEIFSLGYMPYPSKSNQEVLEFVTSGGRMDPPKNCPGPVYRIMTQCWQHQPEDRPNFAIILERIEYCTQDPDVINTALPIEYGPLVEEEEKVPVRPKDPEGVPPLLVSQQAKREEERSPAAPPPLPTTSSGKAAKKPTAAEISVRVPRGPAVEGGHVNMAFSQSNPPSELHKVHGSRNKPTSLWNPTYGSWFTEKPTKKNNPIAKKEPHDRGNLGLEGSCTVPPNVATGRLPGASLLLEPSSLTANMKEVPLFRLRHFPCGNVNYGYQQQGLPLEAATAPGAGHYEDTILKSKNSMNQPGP
T9 sequence (Q9P0L2 whole entry): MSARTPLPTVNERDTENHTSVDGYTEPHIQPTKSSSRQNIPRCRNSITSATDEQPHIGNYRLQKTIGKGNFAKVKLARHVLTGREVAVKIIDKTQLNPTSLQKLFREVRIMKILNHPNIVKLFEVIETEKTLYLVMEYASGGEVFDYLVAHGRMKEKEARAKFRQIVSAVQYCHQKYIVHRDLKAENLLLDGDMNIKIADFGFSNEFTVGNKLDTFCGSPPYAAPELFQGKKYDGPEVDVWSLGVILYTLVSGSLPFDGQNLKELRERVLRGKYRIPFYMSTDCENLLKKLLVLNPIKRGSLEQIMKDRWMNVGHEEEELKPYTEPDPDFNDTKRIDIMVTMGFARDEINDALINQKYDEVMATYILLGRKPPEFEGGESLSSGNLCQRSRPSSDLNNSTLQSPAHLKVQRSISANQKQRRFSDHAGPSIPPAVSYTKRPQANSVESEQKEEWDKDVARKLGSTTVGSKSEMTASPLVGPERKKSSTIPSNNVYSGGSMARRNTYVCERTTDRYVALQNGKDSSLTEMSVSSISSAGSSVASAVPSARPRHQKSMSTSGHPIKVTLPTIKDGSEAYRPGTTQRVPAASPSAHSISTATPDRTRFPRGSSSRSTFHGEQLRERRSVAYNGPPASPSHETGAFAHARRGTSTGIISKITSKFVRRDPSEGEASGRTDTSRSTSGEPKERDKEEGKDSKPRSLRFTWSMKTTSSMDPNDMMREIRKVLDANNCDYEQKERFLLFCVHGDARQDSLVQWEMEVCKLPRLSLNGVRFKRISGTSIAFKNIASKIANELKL
T6 sequence (Q16539 whole entry): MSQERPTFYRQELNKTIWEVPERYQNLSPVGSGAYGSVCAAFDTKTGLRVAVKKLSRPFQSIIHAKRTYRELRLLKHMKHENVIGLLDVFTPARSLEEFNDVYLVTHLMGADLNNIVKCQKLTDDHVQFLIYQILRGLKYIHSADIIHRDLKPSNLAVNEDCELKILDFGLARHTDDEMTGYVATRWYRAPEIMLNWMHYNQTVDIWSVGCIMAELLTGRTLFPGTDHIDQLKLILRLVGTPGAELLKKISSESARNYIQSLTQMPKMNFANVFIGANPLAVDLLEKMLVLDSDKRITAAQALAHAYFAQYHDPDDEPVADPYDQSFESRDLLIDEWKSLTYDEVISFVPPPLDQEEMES
T12 sequence (Q13177 whole entry): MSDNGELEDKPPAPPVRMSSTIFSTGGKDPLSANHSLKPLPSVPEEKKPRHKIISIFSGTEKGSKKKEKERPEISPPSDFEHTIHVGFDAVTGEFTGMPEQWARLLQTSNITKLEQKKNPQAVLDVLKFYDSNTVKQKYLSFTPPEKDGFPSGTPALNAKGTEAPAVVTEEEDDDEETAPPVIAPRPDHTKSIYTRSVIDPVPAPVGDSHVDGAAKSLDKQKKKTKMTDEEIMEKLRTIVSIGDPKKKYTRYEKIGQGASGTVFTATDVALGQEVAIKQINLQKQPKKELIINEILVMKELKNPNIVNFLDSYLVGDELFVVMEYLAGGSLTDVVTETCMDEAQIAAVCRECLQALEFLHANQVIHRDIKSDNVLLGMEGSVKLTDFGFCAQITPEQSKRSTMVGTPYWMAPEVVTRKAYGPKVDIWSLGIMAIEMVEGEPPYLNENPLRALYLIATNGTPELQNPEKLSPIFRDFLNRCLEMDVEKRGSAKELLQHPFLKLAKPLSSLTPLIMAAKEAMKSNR

CC(C)(C)C(=O)N1N=CC[C@H]1c1ccccc1 [GSK′963]
remaining activity at 10 µM [1, 13]: 86%
remaining activity at 10 µM [1, 14]: 87.6%
remaining activity at 10 µM [1, 15]: 84.4%
remaining activity at 10 µM [2, 13]: 78.2%
remaining activity at 10 µM [2, 14]: 80.9%
remaining activity at 10 µM [2, 15]: 75.4%
remaining activity at 10 µM [3, 13]: 96.7%
remaining activity at 10 µM [3, 14]: 95.5%
remaining activity at 10 µM [3, 15]: 97.9%
remaining activity at 10 µM [4, 13]: 108%
remaining activity at 10 µM [4, 14]: 107%
remaining activity at 10 µM [4, 15]: 108%
remaining activity at 10 µM [5, 13]: 101%
remaining activity at 10 µM [5, 14]: 101%
remaining activity at 10 µM [5, 15]: 101%
remaining activity at 10 µM [6, 13]: 94%
remaining activity at 10 µM [6, 14]: 92.9%
remaining activity at 10 µM [6, 15]: 95.2%
remaining activity at 10 µM [7, 13]: 101%
remaining activity at 10 µM [7, 14]: 97.3%
remaining activity at 10 µM [7, 15]: 105%
remaining activity at 10 µM [8, 13]: 96.8%
remaining activity at 10 µM [8, 14]: 97%
remaining activity at 10 µM [8, 15]: 96.7%
remaining activity at 10 µM [9, 13]: 105%
remaining activity at 10 µM [9, 14]: 105%
remaining activity at 10 µM [9, 15]: 105%
remaining activity at 10 µM [10, 13]: 116%
remaining activity at 10 µM [10, 14]: 115%
remaining activity at 10 µM [10, 15]: 117%
remaining activity at 10 µM [11, 13]: 113%
remaining activity at 10 µM [11, 14]: 112%
remaining activity at 10 µM [11, 15]: 114%
remaining activity at 10 µM [12, 13]: 95.8%
remaining activity at 10 µM [12, 14]: 94.9%
remaining activity at 10 µM [12, 15]: 96.8%
